Results: ChEMBL document CHEMBL4813971, “Development of novel benzofuran-based SLC-0111 analogs as selective cancer-associated carbonic anhydrase isoform IX inhibitors” (Eur J Med Chem, 2021)

Assays:
Carbonic anhydrase 9 [1] = molecular target: T1, Carbonic anhydrase 9 (Homo sapiens, UniProt Q16790); assay: Inhibition of human CA9 by stopped- flow CO2 hydration assay
Carbonic anhydrase 9 [2] = molecular target: T1, Carbonic anhydrase 9; assay: Inhibition of human CA9 preincubated for 15 mins by phenol red dye based stopped flow CO2 hydration assay
Carbonic anhydrase 1 = Carbonic anhydrase 1 (Homo sapiens, UniProt P00915); assay: Inhibition of human CA1 by stopped- flow CO2 hydration assay
Sequence of Carbonic anhydrase 1 (P00915 whole entry): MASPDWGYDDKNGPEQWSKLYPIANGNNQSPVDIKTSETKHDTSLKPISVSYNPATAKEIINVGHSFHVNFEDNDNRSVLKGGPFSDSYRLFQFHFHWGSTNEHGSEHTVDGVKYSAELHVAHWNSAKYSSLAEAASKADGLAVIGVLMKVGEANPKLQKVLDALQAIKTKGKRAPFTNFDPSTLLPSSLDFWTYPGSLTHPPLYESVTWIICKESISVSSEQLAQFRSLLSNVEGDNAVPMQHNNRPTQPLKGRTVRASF

MCF7 = assay: Antiproliferative activity against human MCF7 cells incubated for 2 days by MTT assay; conditions: MCF7, 48 h
MDA-MB-231 = assay: Antiproliferative activity against human MDA-MB-231 cells incubated for 2 days by MTT assay; conditions: MDA-MB-231, 48 h

Row | Ki (Carbonic anhydrase 9 [1]) | SMILES | further results
1 | 68.2 nM | Cc1c(NC(=O)Nc2ccccc2S(N)(=O)=O)oc2ccccc12 | –
2 | – | Cc1ccc(S(=O)(=O)C/C(=N\Nc2ccc(S(N)(=O)=O)cc2)c2cc3cc(Br)ccc3o2)cc1 | Ki (Carbonic anhydrase 9 [2]): 10 nM
3 | 34.5 nM | Cc1c(NC(=O)Oc2ccc(S(N)(=O)=O)cc2)oc2ccccc12 | –
4 | 560 nM | Cc1noc(NS(=O)(=O)c2ccc(NC(=O)Nc3oc4ccccc4c3C)cc2)c1C | Ki (Carbonic anhydrase 1): > 100000 nM
5 | 8.4 nM | Cc1ccc(NC(=O)Nc2oc3ccccc3c2C)cc1S(N)(=O)=O | IC50 (MCF7): 6450 nM; IC50 (MDA-MB-231): 6270 nM
6 | 22.8 nM | NS(=O)(=O)c1cc(S(N)(=O)=O)c(NC(=O)Nc2cc3cc(Br)ccc3o2)cc1Cl | –
7 | – | C/C(=N\Nc1ccc(S(N)(=O)=O)cc1)c1cc2cc(Br)ccc2o1 | Ki (Carbonic anhydrase 9 [2]): 27.7 nM
8 | 35.8 nM | NS(=O)(=O)c1ccccc1NC(=O)Nc1cc2cc(Br)ccc2o1 | –
9 | 20.2 nM | NS(=O)(=O)c1cccc(NC(=O)Nc2cc3cc(Br)ccc3o2)c1 | –
10 | 10.4 nM | Cc1c(NC(=O)Nc2ccc(S(N)(=O)=O)cc2)oc2ccccc12 | –
11 | 7.1 nM | NS(=O)(=O)c1ccc(NC(=O)Nc2cc3cc(Br)ccc3o2)cc1 | –
12 | 7.6 nM | Cc1c(NC(=O)NCCc2ccc(S(N)(=O)=O)cc2)oc2ccccc12 | –
13 | 53.9 nM | Cc1c(NC(=O)Nc2cc(Cl)c(S(N)(=O)=O)cc2S(N)(=O)=O)oc2ccccc12 | –
14 | 2300 nM | Cc1noc(NS(=O)(=O)c2ccc(NC(=O)Nc3cc4cc(Br)ccc4o3)cc2)c1C | Ki (Carbonic anhydrase 1): > 100000 nM
15 | 650 nM | Cc1c(NC(=O)Nc2ccc(S(=O)(=O)Nc3nccs3)cc2)oc2ccccc12 | –
16 | 12.6 nM | Cc1c(NC(=O)NNC(=O)c2ccc(S(N)(=O)=O)cc2)oc2ccccc12 | –
17 | 1.8 nM | NS(=O)(=O)c1ccc(C(=O)NNC(=O)Nc2cc3cc(Br)ccc3o2)cc1 | –
18 | 5.5 nM | Cc1ccc(NC(=O)Nc2cc3cc(Br)ccc3o2)cc1S(N)(=O)=O | IC50 (MCF7): 13800 nM; IC50 (MDA-MB-231): 14200 nM
19 | 25.3 nM | Cc1c(NC(=O)Nc2cccc(S(N)(=O)=O)c2)oc2ccccc12 | –
20 | 930 nM | O=C(Nc1ccc(S(=O)(=O)Nc2nccs2)cc1)Nc1cc2cc(Br)ccc2o1 | Ki (Carbonic anhydrase 1): > 100000 nM
